System: human myeloma cell line MM.1S
Assay: SILAC acetylated-lysine peptide profiling, HDAC inhibitor vs DMSO (light/heavy ratio)
Type: cell-based
From the text: An embodiment of the invention comprises utilizing the SILAC method in order to quantitate changes in protein expression between two or more populations of cells. The SILAC method is a technique based on mass spectrometry that detects differences in protein abundance among samples using non-radioactive isotopic labeling. The SILAC method is known in the art, and described in detail in Ong et al., “Stable Isotope Labeling by Amino Acids in Cell Culture, SILAC, as a Simple and Accurate Approach to Expression Proteomics”, Molecular & Cellular Proteomics, vol. 1, pp. 376-386 (2002), which is incorporated herein by reference in its entirety.
Briefly, the SILAC method involves growing two populations of cells in cell culture. The first population of cells is grown in growth media containing normal amino acids (“normal media”). The second population of cells is grown in media lacking a standard essential amino acid (such as lysine), but is then supplemented with a non-radioactive, isotopically labeled form of that essential amino acid (such as lysine labeled with ^13C atoms, rather than normal ^12C atoms), which is called “heavy media”. When the two populations of cells are each growing in the medium, they incorporate the amino acids into all of their proteins. The growth of cells maintained in the heavy media is no different from that in normal media. All peptides containing the heavy amino acids are heavier than their normal counterparts. The cells from each of the two populations of cells are lysed. The lysates from each of the two cell populations are then combined. The combined cell lysates are then analyzed by mass spectrometry. Pairs of chemically identical peptides of different stable isotope composition can be differentiated in a mass spectrometer due to their difference in mass. The ratio of peak intensities in the mass spectrum for such peptide pairs reflects the abundance ratio for the two proteins.
This example describes SILAC studies that were performed to compare the effects of three different HDAC inhibitors (Compound A, Compound B, and tubastatin A) to a control on a human multiple myeloma cell line. The HDAC inhibitors were also compared amongst themselves to determine differences in their effects.
A human myeloma cell line MM.1S was grown using either ^12C (light) or ^13C (heavy) lysine containing culture medium. The “heavy” cells were treated with DMSO as the control, and the “light” cells were treated with a single HDAC inhibitor at 37° C. for 6 hours. The heavy and light cells were lysed, and the lysates were mixed in 1:1 ratio and digested with the protease trypsin. The acetylated lysine containing peptides (due to the action of the HDAC inhibitor) in the digested peptide pool were captured by a non-specific anti-acetylated lysine antibody cocktail (the antibodies identify both light and heavy acetylated peptides), and subjected to mass spectrometry analysis in order to identify thousands of individual peptides.
Thousands of peptides were identified in pairs (^12C and ^13C) due to their known mass differences. The amino acid sequence and quantitative ratio (Light/Heavy) of a given peptide in two differentially treated cell lysates were then determined and annotated with their possible protein (gene) sources.
As stated above, three HDAC inhibitors (Compound A, Compound B, and Tubastatin A) were used. Thus, the SILAC method was performed three times, with a different HDAC inhibitor compared to a control each time. Accordingly, there are three pairs of quantitative data in the table below, i.e., Compound A:DMSO, Compound B:DMSO, and Tubastatin A:DMSO. A cut-off of 1.30 fold of change (increase or decrease) was then used to determine “changed” or “+” in the table, and any peptides with a fold of change less than 1.3 fold were determined to be “unchanged” or “0” in the table. Those peptides that were not identified were marked as “NA” in the table. […]

**Q.** With O=C(CCCCCCNC(=O)c1cnc(N(c2ccccc2)c2ccccc2)nc1)NO [Compound A, 2-(diphenylamino)-N-(7-(hydroxyamino)-7-oxoheptyl)pyrimidine-5-carboxamide] as the compound, how does the “light to heavy ratio (L/H ratio) of acetylated peptide GAGTDEK(ac)TLTR (SEQ ID NO: 621)” value (Annexin A6 [620], gene ANXA6, inhibitor:DMSO) read?
**A.** The value was 0.48 log 2.

**Q.** What about the “light to heavy ratio (L/H ratio), log 2 scale, acetylated peptide EFIEK(ac)YDK (SEQ ID NO: 779)” value (Annexin A6 [644], gene ANXA6, drug:DMSO) of the same compound?
**A.** Its value is 1.00.

**Q.** What about the “light to heavy ratio (L/H ratio) of acetylated peptide DDNGK(ac)PYVLPSVR (SEQ ID NO: 579)” value (Aspartate aminotransferase mitochondrial [73], gene GOT2, inhibitor:DMSO) of the same compound?
**A.** The value was 0.43 log 2.

**Q.** And the “light to heavy ratio (L/H ratio) of acetylated peptide LMEK(ac)EINGSK (SEQ ID NO: 517)” value (Atlastin-3 [309], gene ATL3, inhibitor:DMSO)?
**A.** The value was −0.56 log 2.

**Q.** What about the “light to heavy ratio (L/H ratio) of acetylated peptide ELK(ac)EIQYGIR (SEQ ID NO: 540)” value (Branched-chain-amino-acid aminotransferase [337], gene BCAT2, inhibitor:DMSO) of the same compound?
**A.** The value was 0.39 log 2.

**Q.** What about the “light to heavy ratio (L/H ratio), log 2 scale, acetylated peptide ESCSK(ac)[…] (SEQ ID NO: 780)” value (Bromodomain and PHD finger-containing protein 3 [105], gene BRPF3, drug:DMSO) of the same compound?
**A.** The value was 1.00.

**Q.** And the “L/H ratio of acetylated peptide FYGDEEK(ac)[…] (SEQ ID NO: 25)” value (CALR [62], log 2 scale, drug vs DMSO)?
**A.** Its value is 0.00.

**Q.** And the “light to heavy ratio (L/H ratio) of acetylated peptide LQVLDPVPK(ac)PVIK (SEQ ID NO: 539)” value (CD48 antigen [133], gene CD48, inhibitor:DMSO)?
**A.** The value was 0.39 log 2.

**Q.** What about the “light to heavy ratio (L/H ratio) of acetylated peptide AGLQVYNK(ac)CWK (SEQ ID NO: 260)” value (CD59 glycoprotein [63], CD59, drug:DMSO) of the same compound?
**A.** Its value is 0.41 log 2.

**Q.** And the “L/H ratio of acetylated peptide […](ac)R (SEQ ID NO: 26)” value (CLTC [637], log 2 scale, drug vs DMSO)?
**A.** Its value is 0.00.

**Q.** What about the “L/H ratio of acetylated peptide FK(ac)ESFAEMNR (SEQ ID NO: 1)” value (COX4I1 [87], log 2 scale, drug vs DMSO) of the same compound?
**A.** The value was 0.00.

**Q.** What about the “L/H ratio of acetylated peptide […](ac)QLCTIPR (SEQ ID NO: 27)” value (CREBBP [1216], log 2 scale, drug vs DMSO) of the same compound?
**A.** The value was 0.00.

**Q.** What about the “L/H ratio of acetylated peptide TNK(ac)NK(ac)SSISR (SEQ ID NO: 13)” value (CREBBP [1595:1597], log 2 scale, drug vs DMSO) of the same compound?
**A.** Its value is 1.00.

**Q.** What about the “L/H ratio of acetylated peptide ALK(ac)DLYCHK (SEQ ID NO: 28)” value (CREM [240], log 2 scale, drug vs DMSO) of the same compound?
**A.** Its value is 0.00.

**Q.** And the “L/H ratio of acetylated peptide LYCPK(ac)CMDVYTPK (SEQ ID NO: 29)” value (CSNK2B [139], log 2 scale, drug vs DMSO)?
**A.** Its value is 0.00.

**Q.** And the “light to heavy ratio (L/H ratio) of acetylated peptide NSFDCFK(ac)K (SEQ ID NO: 605)” value (Calcium-binding mitochondrial carrier protein Aralar2 [379], gene SLC25A13, inhibitor:DMSO)?
**A.** The value was 0.46 log 2.

**Q.** And the “light to heavy ratio (L/H ratio) of acetylated peptide FVLSSGK(ac)FYGDEEKDK (SEQ ID NO: 281)” value (Calreticulin [55], CALR, drug:DMSO)?
**A.** The value was 0.58 log 2.

**Q.** What about the “light to heavy ratio (L/H ratio) of acetylated peptide VHVIFNYK(ac)GK (SEQ ID NO: 273)” value (Calreticulin [151], CALR, drug:DMSO) of the same compound?
**A.** Its value is 0.48 log 2.

**Q.** What about the “light to heavy ratio (L/H ratio) of acetylated peptide NVLINK(ac)DIR (SEQ ID NO: 257)” value (Calreticulin [159], CALR, drug:DMSO) of the same compound?
**A.** The value was 0.39 log 2.

**Q.** And the “light to heavy ratio (L/H ratio) of acetylated peptide TCDLVGEK(ac)GK (SEQ ID NO: 289)” value (Cation-dependent mannose-6-phosphate receptor [38], M6PR, drug:DMSO)?
**A.** The value was 0.65 log 2.

**Q.** What about the “light to heavy ratio (L/H ratio) of acetylated peptide […](ac)GLLK (SEQ ID NO: 569)” value (Chloride intracellular channel protein 1 [131], gene CLIC1, inhibitor:DMSO) of the same compound?
**A.** Its value is 0.41 log 2.

**Q.** And the “light to heavy ratio (L/H ratio), log 2 scale, acetylated peptide GFSIPECQK(ac)LLPK (SEQ ID NO: 783)” value (Citrate synthase mitochondrial [103], gene CS, drug:DMSO)?
**A.** The value was 1.00.

**Q.** And the “light to heavy ratio (L/H ratio) of acetylated peptide […](ac)LR (SEQ ID NO: 566)” value (Citrate synthase mitochondrial [327], gene CS, inhibitor:DMSO)?
**A.** Its value is 0.41 log 2.

**Q.** What about the “light to heavy ratio (L/H ratio) of acetylated peptide EFALK(ac)HLPNDPMFK (SEQ ID NO: 583)” value (Citrate synthase mitochondrial [366], gene CS, inhibitor:DMSO) of the same compound?
**A.** The value was 0.43 log 2.

**Q.** What about the “light to heavy ratio (L/H ratio) of acetylated peptide SMSTEGLMK(ac)FVDSK (SEQ ID NO: 330)” value (Citrate synthase mitochondrial [459], CS, drug:DMSO) of the same compound?
**A.** The value was 0.00 log 2.

**Q.** And the “light to heavy ratio (L/H ratio) of acetylated peptide VASK(ac)QLEEEDGSR (SEQ ID NO: 591)” value (Coatomer subunit gamma [238], gene COPG, inhibitor:DMSO)?
**A.** Its value is 0.44 log 2.

**Q.** What about the “light to heavy ratio (L/H ratio), log 2 scale, acetylated peptide MIYASSK(ac)DAIKK (SEQ ID NO: 763)” value (Cofilin-1 [121], gene CFL1, drug:DMSO) of the same compound?
**A.** Its value is 0.93.

**Q.** And the “light to heavy ratio (L/H ratio) of acetylated peptide AAEEVEAK(ac)FK (SEQ ID NO: 328)” value (Coiled-coil-helix-coiled-coil-helix domain-containing protein 3 mitochondrial [173], CHCHD3, drug:DMSO)?
**A.** The value was 0.00 log 2.

**Q.** What about the “light to heavy ratio (L/H ratio) of acetylated peptide ASEIGEK(ac)YR (SEQ ID NO: 586)” value (Conserved hypothetical protein [484], gene KIAA0947, inhibitor:DMSO) of the same compound?
**A.** The value was 0.44 log 2.

**Q.** And the “light to heavy ratio (L/H ratio) of acetylated peptide DHCVAHK(ac)LFNNLK (SEQ ID NO: 608)” value (Cytochrome b-c1 complex subunit 6 mitochondrial [85], gene UQCRH, inhibitor:DMSO)?
**A.** Its value is 0.46 log 2.

**Q.** What about the “light to heavy ratio (L/H ratio) of acetylated peptide LFDYFPK(ac)PYPNSEAAR (SEQ ID NO: 548)” value (Cytochrome c1 heme protein mitochondrial [177], gene CYC1, inhibitor:DMSO) of the same compound?
**A.** Its value is 0.39 log 2.

**Q.** And the “light to heavy ratio (L/H ratio) of acetylated peptide YFDEK(ac)IAK (SEQ ID NO: 563)” value (D-beta-hydroxybutyrate dehydrogenase mitochondrial [280], gene BDH1, inhibitor:DMSO)?
**A.** Its value is 0.41 log 2.

**Q.** What about the “L/H ratio of acetylated peptide FK(ac)[…] (SEQ ID NO: 30)” value (DAZAP1 [59], log 2 scale, drug vs DMSO) of the same compound?
**A.** The value was 0.00.

**Q.** And the “L/H ratio of acetylated peptide APTIVGK(ac)SSLNPILFR (SEQ ID NO: 31)” value (DDOST [189], log 2 scale, drug vs DMSO)?
**A.** The value was 0.00.

**Q.** And the “L/H ratio of acetylated peptide FGNPGEK(ac)LVK (SEQ ID NO: 34)” value (DDX5 [40], log 2 scale, drug vs DMSO)?
**A.** The value was 0.00.

Reference: patent publication US20140357512A1, “HISTONE DEACETYLASE (HDAC) BIOMARKERS IN MULTIPLE MYELOMA” (priority 2013, published 2014)
